Experimental data reported in patent publication US4351822A, “Quantitative testing for vitamin B12” (University Patents, Inc., priority 1979, dated 1982).

Legend:
[1] = target: T1, Human R protein (Human R) (Homo sapiens, UniProt P20061); test: Radioisotope dilution (RID) radiobinding assay for vitamin B12, Human R binder; format: binding; conditions: 500 pg added to human serum in the dark, 15 min incubation, standard extraction
T1 construct: from tissue; host or cells: human saliva
T1 sequence (P20061 24-433): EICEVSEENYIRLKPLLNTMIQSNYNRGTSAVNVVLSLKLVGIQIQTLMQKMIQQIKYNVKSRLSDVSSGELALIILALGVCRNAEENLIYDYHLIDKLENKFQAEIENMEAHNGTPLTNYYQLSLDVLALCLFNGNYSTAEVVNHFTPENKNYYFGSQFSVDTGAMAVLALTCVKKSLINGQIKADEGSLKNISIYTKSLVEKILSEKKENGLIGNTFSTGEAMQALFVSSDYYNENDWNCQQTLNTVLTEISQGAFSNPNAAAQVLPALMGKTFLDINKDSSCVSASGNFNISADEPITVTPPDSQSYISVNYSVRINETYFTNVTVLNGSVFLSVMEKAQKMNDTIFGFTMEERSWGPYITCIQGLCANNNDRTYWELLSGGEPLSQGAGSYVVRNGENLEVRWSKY
Protocol: (§1) Each of the RID assays referred to herein utilized the components referred to above. That is, components A, B, C, etc. or the buffer, albumin, and salt, respectively, etc. were added in the order, from left to right, shown in Table 1.
(§2) After the addition of ^57 Co-B12 the components are mixed thoroughly to mix both the naturally occurring B12 and the radioisotope B12 to make them compete and equally available to react with the binder. After the addition of the binder, H, the components were again mixed thoroughly, and then incubated for 45 minutes at about 37° C. Charcoal was then added to the incubated mixture and the components again mixed thoroughly and incubated for another 5 minutes at room temperature. This was followed by centrifuging at 2000×g at 4° C. for 30 minutes. Then 1000 ul of the resulting supernatant liquid is pipetetted from the sample and a determination of the amount of ^57 Co-B12 present is made. The amount of ^57 Co-B12 is indicative of the amount of natural B12 in the tested sample, with lesser amounts of ^57 Co-B12 being indicative of greater amounts of natural vitamin B12 in the sample.
(§3) (1) The values in tubes 3 and 4, the "blank" tubes without binder are averaged and subtracted from all other tubes starting with tube 5.
(§4) (2) The background radiation is subtracted from tubes 1 and 2 and these values are averaged.
(§5) (3) Tubes 5 and 6 are averaged. This value should be at least 15% below the average value for tubes 1 and 2 to insure that all of the binder is saturated in the presence of (^57 Co) B12 alone.
(§6) (4) Values for each tube beginning with tube 7 are divided by the average of tubes 5 and 6 to give values for "% trace binding."
(§7) (5) Percent trace binding for tubes 7-14 are used to obtain a standard curve. We plot % trace binding on the ordinate of logit-log paper versus pg vitamin B12 on the log scale.
(§8) (6) The amount of vitamin B12 in unknown samples is determined by interpolation from the standard curve or data of % trace binding versus pg vitamin B12. […]

[2] = target: Human intrinsic factor (Human IF) (Homo sapiens, UniProt P27352); test: Radioisotope dilution (RID) radiobinding assay for vitamin B12, Human IF binder; format: binding; conditions: 500 pg added to human serum in the dark, 15 min incubation, standard extraction
Sequence of Human intrinsic factor (Human IF) (P27352 19-417): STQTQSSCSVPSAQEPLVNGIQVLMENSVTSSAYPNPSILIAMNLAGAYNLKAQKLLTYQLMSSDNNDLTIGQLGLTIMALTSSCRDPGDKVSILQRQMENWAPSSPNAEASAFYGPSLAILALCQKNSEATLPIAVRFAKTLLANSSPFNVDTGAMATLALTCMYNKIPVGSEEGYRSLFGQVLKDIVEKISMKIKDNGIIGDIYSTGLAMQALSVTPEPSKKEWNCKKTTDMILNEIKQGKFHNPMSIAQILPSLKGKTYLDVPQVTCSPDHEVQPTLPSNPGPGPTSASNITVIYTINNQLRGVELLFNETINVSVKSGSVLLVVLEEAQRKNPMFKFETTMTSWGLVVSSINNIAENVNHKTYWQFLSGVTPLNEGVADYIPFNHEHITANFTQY
Protocol: as §1, §2, §3, §4, §5, §6, §7, §8

increase in the apparent amount of vitamin B12, RID with human R protein [1]	increase in the apparent amount of vitamin B12, RID with human IF protein [2]	Compound
about 500 pg	about 500 pg	C/C1=C2/[N-][C@H]([C@H](CC(N)=O)[C@@]2(C)CCC(=O)NC[C@@H](C)OP(=O)([O-])O[C@H]2[C@@H](O)[C@@H](n3cnc4cc(C)c(C)cc43)O[C@@H]2CO)[C@]2(C)N=C(/C(C)=C3N=C(/C=C4N=C1[C@@H](CCC(N)=O)C\4(C)C)[C@@H](CCC(N)=O)[C@]\3(C)CC(N)=O)[C@@H](CCC(N)=O)[C@]2(C)CC(N)=O.[Co+3].[OH-] [OH-B12]
about 500 pg	about 500 pg	C/C1=C2/[N-]C([C@H](CC(N)=O)[C@@]2(C)CCC(=O)NC[C@@H](C)OP(=O)([O-])O[C@H]2[C@@H](O)[C@@H](n3cnc4cc(C)c(C)cc43)O[C@@H]2CO)[C@]2(C)N=C(/C(C)=C3N=C(/C=C4N=C1[C@@H](CCC(N)=O)C\4(C)C)[C@@H](CCC(N)=O)[C@]\3(C)CC(N)=O)[C@@H](CCC(N)=O)[C@]2(C)CC(N)=O.[CH2-][C@H]1O[C@@H](n2cnc3c(N)ncnc32)[C@@H](O)[C@@H]1O.[Co+3] [adenosyl-B12]
about 500 pg	about 500 pg	CH3 -B12
